Reference: article PMC5460289, “Identification of New Shikonin Derivatives as Antitumor Agents Targeting STAT3 SH2 Domain” (Scientific Reports, 2017)

Experiments:
Assay type in all cases: cell-based, human
BT-474 = test: MTT anti-proliferation assay; conditions: 24 h treatment
Procedure: (§1) Initial experiments were performed for evaluation of growth inhibition by the new compounds against six human breast cancer cell lines, including MCF-7 (ER+/PR+, HER-2-), BT474 (ER+/PR+, HER-2+), SKBR-3 (ER-/PR-/HER-2+), MDA-MB-436 (ER-/PR-/HER-2-), MDA-MB-231 (ER-/PR-/HER-2-), MDA-MB-468 (ER-/PR-/HER-2-) and non-tumorigenic MCF-10A cells. After 24 h treatment by the obtained compounds, the inhibition was assessed and the IC50 was summarized. […] Subsequently, the inhibition of STAT3 activation by PMM-172 and Stattic was evaluated using a dual-luciferase assay.
(§2) The anti-proliferative activities of the prepared compounds against MCF-7 (ER+/PR+, HER-2-), BT474 (ER+/PR+, HER-2+), SKBR-3 (ER-/PR-/HER-2+), MDA-MB-436 (ER-/PR-/HER-2-), MDA-MB-231 (ER-/PR-/HER-2-), MDA-MB-468 (ER-/PR-/HER-2-) and non-tumorigenic MCF-10A cell lines were evaluated using a standard (MTT)-based colorimetric assay with some modification. Cell lines were grown to log phase in DMEM supplemented with 10% fetal bovine serum. Cell suspensions were prepared and 100 μL/well dispensed into 96-well plates giving 10^4 cells/well. The subsequent incubation was permitted at 37 °C, 5% CO2 atmosphere for 24 h to allow the cells to reattach. Subsequently, cells were treated with the target compounds at increasing concentrations in the presence of 10% FBS for 24 h. Then, cell viability was assessed by the conventional 3-(4, 5-dimethylthiazol-2-yl)-2, 5-diphenyltetrazolium bromide (MTT) reduction assay and carried out strictly according to the manufacturer instructions. The absorbance (OD570) was read on an ELISA reader (Tecan, Austria). In all experiments, three replicate wells were used for each drug concentration. Each assay was carried out for at least three times.

MCF-7 = test: MTT anti-proliferation assay; conditions: 24 h treatment
Procedure: as §1, §2

MDA-MB-231 = test: MTT anti-proliferation assay; conditions: 24 h treatment
Procedure: as §1, §2

MDA-MB-436 = test: MTT anti-proliferation assay; conditions: 24 h treatment
Procedure: as §1, §2

MDA-MB-468 = test: MTT anti-proliferation assay; conditions: 24 h treatment
Procedure: as §1, §2

SKBR-3 = test: MTT anti-proliferation assay; conditions: 24 h treatment
Procedure: as §1, §2

[1] = tested on: STAT3-TATA-Luc reporter in MDA-MB-231 cells; test: STAT3 dual-luciferase reporter assay; conditions: MDA-MB-231, 24 h treatment
Procedure: Figure 3 MDA-MB-231 cells were transfected with STAT3-TATA-Luc reporter and Renilla luciferase reporter plasmids. After 24 h, cells were treated with indicated concentrations of PMM-172 or Stattic for 24 h and then luciferase intensity was measured. Results are fold change ± SD of three independent experiments, *P < 0.05, **P < 0.01.
Cells were seeded in 24 well plates and transiently transfected together with STAT3 reporter plasmid 4 × M67 pTATA TK-Luc (0.2 μg/per well, Addgene, USA) and Renilla luciferase control reporter plasmid pRL-CMV (0.1 μg/per well, promega, USA), using lipofectamine 2000 (Invitrogen, USA). Then the cells were incubated with complete medium for 24 h with PMM-172 or Stattic. Following the treatment, the cells were harvested in 100 μL of passive lysis buffer (Promega, USA) in each well. A 25 μL aliquot of cell lysate was subjected to a luciferase assay by using the dual-luciferase assay kit (Promega, USA). STAT3 luciferase activity was measured by EnVision Mutilabel Reader (Perkin Elmer, USA). Relative luciferase activity was calculated after the activity of STAT3-dependent firefly luciferase had been normalized to that of Renilla luciferase. All values are expressed as - fold induction relative to basal activity.

[2] = tested on: pSTAT3 (Tyr705) in MDA-MB-231 cells; test: Western blot of constitutive STAT3 activation
Description: It has been well recognized that the aberrant activation of STAT3 contributes to malignant transformation and tumorgenesis, and its activity is ultimately dependent upon phosphorylation of residue Y705. […] In this study, the ability of PMM-172 and Stattic inhibiting the constitutive STAT3 activation in MDA-MB-231 cells was investigated. […] We further measured STAT3 phosphorylation at Tyr705 in a time-course experiment.
Figure 6 (A) PMM-172 suppressed constitutive pSTAT3 (Tyr705) in a dose-dependent manner. (B) PMM-172 suppressed constitutive pSTAT3 (Tyr705) in a time-dependent manner. (C) MDA-MB-231 cells were treated with IL-6 (20 ng/mL) or vehicle for 30 min, with or without pretreatment with PMM-172 (2 μM) for 24 h. PMM-172 inhibited IL-6 induced phosphorylation of STAT3. (D) Stattic suppressed constitutive pSTAT3 (Tyr705) in a dose-dependent manner. (E) Stattic suppressed constitutive pSTAT3 (Tyr705) in a time-dependent manner. (F) Tyrosine phosphorylation of two STAT family proteins STAT1 and STAT5 were detected with specific antibodies. […] Data were shown as mean ± SD of three independent experiments. *P < 0.05, **P < 0.01. Cropped blots/gels were used in the figure and the gels had been run under the same experimental conditions; the full-length blots/gels are presented in Supplementary Figure S2.
Cells were rinsed twice with cold PBS and then lysed with RIPA buffer containing a protease inhibitor mixture at 1:100 dilution on ice for 30 min. Insoluble components of cell lysates were removed by centrifugation (4 °C, 12000 rmp, 10 min), and protein concentrations were measured using a Pierce BCA protein assay kit. Proteins were separated by sodium dodecyl sulfate-polyacrylamide gel electrophoresis (SDS-PAGE) and transferred from the gel onto polyvinylidene difluoride (PVDF) membranes. The membranes were blocked with 5% skim milk in TBST buffer for 1 h at room temperature, and then incubated with corresponding primary antibodies diluted in 5% milk-TBST solution at 4 °C with gentle shaking overnight. After washing five times (5 min each), corresponding HRP-conjugated secondary antibodies were incubated for 1 h at room temperature. Immunoreactive bands were visualized using an ECL detection kit (Invitrogen, USA) following the manufacturer’s instruction.

[3] = tested on: STAT3 nuclear localization in MDA-MB-231 cells; test: STAT3 nuclear localization (cytoplasmic and nuclear extracts, Western blot); conditions: MDA-MB-231, 24 h
Procedure: It is known that the dimerization of STAT3 is induced by the phosphorylation at residue Tyr 705, which then leads to its nuclear translocation. Herein, we investigated the effect of PMM-172 and Stattic on STAT3 nuclear translocation. The cytoplasmic and nuclear proteins of treated cells were extracted and the expressions of STAT3 in both fractions were examined.
Figure 7 MDA-MB-231 cells were treated with indicated concentrations of PMM-172 or Stattic for 24 h, the expression levels of STAT3 in cytoplasmic and nuclear extracts were examined and relative expression levels were analyzed by Image J software. β-actin and Lamin B1 served as markers of cytoplasmic and nuclear extractions, respectively. […] (C) MCF-10A cells were treated with the indicated concentrations of PMM-172 for 24 h. PMM-172 had no effect on the level of the pSTAT3 level in MCF-10A cells. […] Data were shown as mean ± SD from three independent experiments, **P < 0.01. Cropped blots/gels were used in the figure and the gels had been run under the same experimental conditions; the full-length blots/gels are presented in Supplementary Figure S3.
To examine the relative proportion of STAT3 in the cytoplasm and nucleus, cytoplasmic and nuclear extracts were prepared. In brief, control and treated cells were collected and suspended in a buffer containing 10 mM HEPES (pH 7.9), 10 mM KCl, 0.1 mM EDTA (pH 8.0), 0.1 mM EGTA (pH 7.0), 1 mM DTT, 0.5 mM PMSF, 2 μg/mL leupeptin, 2 μg/mL aprotonin, 0.5 mg/mL benzamidine. After 15 min, NP-40 (0.25%) was added, and cell lysate was vortexed for 10 s and centrifuged at 10000 rmp at 4 °C for 1 min. […] The protein content in the nuclear and cytoplasmic fractions was determined using a Pierce BCA protein assay kit.
Cells were rinsed twice with cold PBS and then lysed with RIPA buffer containing a protease inhibitor mixture at 1:100 dilution on ice for 30 min. Insoluble components of cell lysates were removed by centrifugation (4 °C, 12000 rmp, 10 min), and protein concentrations were measured using a Pierce BCA protein assay kit. […]

IC50 (BT-474): 5.11 ± 0.57 µM | IC50 (MCF-7): 5.85 ± 0.72 µM | IC50 (MDA-MB-231): 3.18 ± 0.33 µM | IC50 (MDA-MB-436): 3.76 ± 0.5 µM | IC50 (MDA-MB-468): 3.54 ± 0.42 µM | IC50 (SKBR-3): 3.39 ± 0.56 µM
Compound: O=[N+]([O-])c1ccc2c(c1)S(=O)(=O)C=C2 [Stattic, reference compound]
STAT3 luciferase activity [1]: only a slight advantage over PMM-172 | STAT3 expression [2]: had no effect on STAT3 expression | STAT3 phosphorylation at Tyr705, time-course [2]: reduced with the longer treatment | level of Y705-phosphorylated STAT3 (constitutive), dose series [2]: could reduce the level of Y705-phosphorylated STAT3 in MDA-MB-231 cells in a dose-dependent manner | level of STAT3 in the nuclear fraction [3]: suppressed STAT3 nuclear localization
